According to ChEMBL document CHEMBL1201862, “PubChem BioAssay data set” (2004):
Activity calls are given as the source filed them.

Tests used:
[1] = NIH-3T3 fibroblast cytotoxicity, dose response, cytotoxicity control, cell-based, fluorescence, Alamar Blue, secondary assay (AID 2327); format: functional;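 note: NIH-3T3 mouse fibroblasts cultured with fluconazole at 8 µg/mL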
[2] = fluconazole-exposed Candida albicans growth modulators – fluorescence, retest, confirmation (AID 2467); format: functional, cell-based
Cytochrome P450 2C19 = Cytochrome P450 2C19 (Homo sapiens, UniProt P33261); test: Cytochrome panel assay with activity outcomes. Panel member name: p450-cyp2c19 Compounds with AC50 equal or less than 10 uM are considered active; format: functional; details: read-out: AC50
Cytochrome P450 2D6 = Cytochrome P450 2D6 (Homo sapiens, UniProt P10635);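 note: CYP2D6 member of a cytochrome P450 panel assay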
[3] = target: T1, Rac GTPase-activating protein 1 (Homo sapiens, UniProt Q9H0H5); test: blockers of MgcRacGAP-driven Rac1 GTP hydrolysis – biochemical, ADP Hunter fluorescence, primary and confirmatory, confirmation (AID 624330); format: functional
T1 sequence (Q9H0H5 whole entry): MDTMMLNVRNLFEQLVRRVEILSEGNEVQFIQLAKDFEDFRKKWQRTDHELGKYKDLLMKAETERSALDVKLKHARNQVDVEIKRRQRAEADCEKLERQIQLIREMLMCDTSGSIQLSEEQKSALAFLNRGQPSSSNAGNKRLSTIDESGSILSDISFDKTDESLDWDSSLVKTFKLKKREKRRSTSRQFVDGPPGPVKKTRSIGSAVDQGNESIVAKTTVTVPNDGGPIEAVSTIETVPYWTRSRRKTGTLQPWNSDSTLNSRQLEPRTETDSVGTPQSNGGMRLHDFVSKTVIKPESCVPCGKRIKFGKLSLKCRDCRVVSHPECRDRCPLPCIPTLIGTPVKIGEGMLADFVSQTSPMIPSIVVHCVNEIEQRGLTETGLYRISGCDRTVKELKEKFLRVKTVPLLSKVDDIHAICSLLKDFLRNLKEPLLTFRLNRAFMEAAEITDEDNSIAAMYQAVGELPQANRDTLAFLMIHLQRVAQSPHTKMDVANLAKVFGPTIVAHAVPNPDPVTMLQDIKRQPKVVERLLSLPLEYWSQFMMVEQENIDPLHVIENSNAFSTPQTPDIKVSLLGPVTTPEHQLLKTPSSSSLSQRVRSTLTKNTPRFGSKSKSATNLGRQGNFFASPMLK

cells = format: functional
[4] = system: Streptococcus sp. 'group A'; test: Streptococcus pyogenes SK(-)GAS viability under kanamycin – luminescence, BacTiterGlo, confirmation, counter-screen for streptokinase expression inhibitor project, dose response (AID 1900); format: functional, organism-based
Streptokinase A = target: T2, Streptokinase A (Streptococcus pyogenes serotype M1, UniProt P10520); test: viability-normalized secreted streptokinase activity reduction – plasminogen activation absorbance, OD405, dose response (AID 1914); format: functional, Streptococcus pyogenes M1 GAS;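 note: secreted streptokinase activity via plasminogen activation per viability signal from cell pellet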
T2 sequence (P10520 whole entry): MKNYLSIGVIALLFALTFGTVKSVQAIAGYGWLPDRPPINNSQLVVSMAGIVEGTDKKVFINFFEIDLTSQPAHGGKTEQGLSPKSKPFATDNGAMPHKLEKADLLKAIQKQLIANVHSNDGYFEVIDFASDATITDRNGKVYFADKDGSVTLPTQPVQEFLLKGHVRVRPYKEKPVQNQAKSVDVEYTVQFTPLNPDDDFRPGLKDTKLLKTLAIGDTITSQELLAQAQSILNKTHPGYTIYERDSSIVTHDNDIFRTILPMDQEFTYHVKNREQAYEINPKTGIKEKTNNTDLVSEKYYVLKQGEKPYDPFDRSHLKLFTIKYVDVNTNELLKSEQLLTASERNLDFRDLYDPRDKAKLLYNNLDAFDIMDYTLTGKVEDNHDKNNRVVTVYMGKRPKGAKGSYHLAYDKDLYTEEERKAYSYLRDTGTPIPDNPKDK

Streptococcus = test: GAS UMAA2166 growth inhibition – luminescence, BacTiterGlo, counter-screen for streptokinase expression inhibitor project, dose response (AID 1915); format: functional, organism-based;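 note: potency for reduction of bacterial viability or growth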
[5] = Luminescence Cell-Based Dose Response HTS to Identify Activators of Luciferase Translation or Activity in H4 […] Cells. [Related pubchem assays: 1829 (Project Summary), 1814 (Primary HTS)]; format: functional
H4 = test: Luminescence Cell-Based Dose Response HTS to Identify Activators of 5'UTR Stem-Loop Driven Prion Protein mRNA Translation in H4 Neuroglioblastoma Cells. [Related pubchem assays: 1829 (Project Summary), 1814 (Primary HTS)]; format: functional; details: Homo sapiens
Cytochrome P450 1A2 = target: T3, Cytochrome P450 1A2 (Homo sapiens, UniProt P05177);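 note: PubChem cytochrome P450 panel assay, CYP1A2 panel member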
T3 sequence (P05177 whole entry): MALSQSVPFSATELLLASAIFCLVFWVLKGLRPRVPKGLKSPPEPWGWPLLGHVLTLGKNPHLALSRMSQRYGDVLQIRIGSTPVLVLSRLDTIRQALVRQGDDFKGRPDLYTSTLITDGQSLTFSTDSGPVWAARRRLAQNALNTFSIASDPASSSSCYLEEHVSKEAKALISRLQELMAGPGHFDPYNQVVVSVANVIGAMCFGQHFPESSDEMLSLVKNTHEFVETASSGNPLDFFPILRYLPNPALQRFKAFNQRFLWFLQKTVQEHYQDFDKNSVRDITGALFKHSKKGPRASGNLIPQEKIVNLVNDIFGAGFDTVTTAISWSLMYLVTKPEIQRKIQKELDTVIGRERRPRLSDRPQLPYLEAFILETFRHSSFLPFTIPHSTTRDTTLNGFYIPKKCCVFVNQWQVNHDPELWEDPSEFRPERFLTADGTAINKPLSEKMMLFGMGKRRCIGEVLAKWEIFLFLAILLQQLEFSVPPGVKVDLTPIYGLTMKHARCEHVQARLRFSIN

Cytochrome P450 3A4 = Cytochrome P450 3A4 (Homo sapiens, UniProt P08684);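 note: CYP3A4 tested as one member of a cytochrome P450 panel screen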
[6] = target: T4, RNA-binding protein pos-1 (Caenorhabditis elegans, UniProt G5EF15); test: disruptors of C. elegans POS-1 RNA interaction – biochemical, fluorescence polarization, dose response (AID 1964);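 note: purified POS-1 fused to maltose binding protein made in E. coli; potency of compounds blocking POS-1 binding to fluorescent RNA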
T4 sequence (G5EF15 whole entry): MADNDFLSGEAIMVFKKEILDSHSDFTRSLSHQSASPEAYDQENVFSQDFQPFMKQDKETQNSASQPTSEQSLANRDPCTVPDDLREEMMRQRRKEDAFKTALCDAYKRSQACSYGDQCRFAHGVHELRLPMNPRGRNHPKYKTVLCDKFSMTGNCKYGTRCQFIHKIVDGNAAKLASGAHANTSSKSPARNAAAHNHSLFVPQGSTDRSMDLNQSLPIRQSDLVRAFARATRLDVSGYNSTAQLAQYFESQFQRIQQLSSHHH

[7] = target: T5, Zinc finger protein mex-5 (Caenorhabditis elegans, UniProt Q9XUB2); test: potency of MEX-5 RNA-binding blockers – biochemical, C. elegans, fluorescence polarization, dose response (AID 1960)
T5 sequence (Q9XUB2 whole entry): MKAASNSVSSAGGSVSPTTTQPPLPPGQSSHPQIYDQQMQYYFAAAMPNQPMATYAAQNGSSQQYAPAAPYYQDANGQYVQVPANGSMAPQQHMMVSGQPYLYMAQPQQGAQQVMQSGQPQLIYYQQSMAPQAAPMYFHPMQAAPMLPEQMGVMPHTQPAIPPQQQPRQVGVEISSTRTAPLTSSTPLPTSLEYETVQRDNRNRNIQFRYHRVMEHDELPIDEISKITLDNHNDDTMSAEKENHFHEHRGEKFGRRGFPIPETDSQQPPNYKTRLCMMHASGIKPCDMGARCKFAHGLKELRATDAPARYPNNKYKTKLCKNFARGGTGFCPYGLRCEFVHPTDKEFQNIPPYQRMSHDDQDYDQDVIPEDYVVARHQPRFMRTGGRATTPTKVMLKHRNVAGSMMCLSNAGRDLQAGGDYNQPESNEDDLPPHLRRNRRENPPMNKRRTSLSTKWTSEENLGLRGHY

Chain of Cytochrome P450 2D6 (P10635 whole entry): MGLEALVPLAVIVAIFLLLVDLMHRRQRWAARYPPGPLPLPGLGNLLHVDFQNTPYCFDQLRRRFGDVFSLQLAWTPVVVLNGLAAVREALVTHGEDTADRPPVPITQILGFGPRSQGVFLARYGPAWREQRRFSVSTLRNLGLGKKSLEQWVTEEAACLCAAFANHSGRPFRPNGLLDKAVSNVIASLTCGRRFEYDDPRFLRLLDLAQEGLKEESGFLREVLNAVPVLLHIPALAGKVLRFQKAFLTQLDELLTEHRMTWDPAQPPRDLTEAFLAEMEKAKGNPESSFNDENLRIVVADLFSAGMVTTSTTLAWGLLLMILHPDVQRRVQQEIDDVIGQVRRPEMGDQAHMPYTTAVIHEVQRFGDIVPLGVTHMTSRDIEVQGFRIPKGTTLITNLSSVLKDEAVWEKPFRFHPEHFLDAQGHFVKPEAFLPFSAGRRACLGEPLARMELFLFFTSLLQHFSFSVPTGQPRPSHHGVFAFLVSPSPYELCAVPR
Chain of Cytochrome P450 3A4 (P08684 whole entry, the tested form may be a part): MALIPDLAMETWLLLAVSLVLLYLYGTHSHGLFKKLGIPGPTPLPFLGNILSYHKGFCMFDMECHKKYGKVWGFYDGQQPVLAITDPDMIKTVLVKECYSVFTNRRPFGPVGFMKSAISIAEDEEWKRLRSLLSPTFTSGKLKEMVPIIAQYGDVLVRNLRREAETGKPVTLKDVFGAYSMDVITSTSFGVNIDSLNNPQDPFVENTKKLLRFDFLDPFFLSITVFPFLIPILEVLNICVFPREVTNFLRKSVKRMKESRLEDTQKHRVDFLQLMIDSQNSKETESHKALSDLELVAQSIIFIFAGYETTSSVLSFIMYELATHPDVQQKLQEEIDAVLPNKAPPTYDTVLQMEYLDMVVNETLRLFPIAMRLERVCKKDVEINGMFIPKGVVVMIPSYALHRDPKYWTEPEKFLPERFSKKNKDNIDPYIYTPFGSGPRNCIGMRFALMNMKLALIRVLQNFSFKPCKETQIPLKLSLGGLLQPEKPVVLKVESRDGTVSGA
Chain of Cytochrome P450 2C19 (P33261 whole entry): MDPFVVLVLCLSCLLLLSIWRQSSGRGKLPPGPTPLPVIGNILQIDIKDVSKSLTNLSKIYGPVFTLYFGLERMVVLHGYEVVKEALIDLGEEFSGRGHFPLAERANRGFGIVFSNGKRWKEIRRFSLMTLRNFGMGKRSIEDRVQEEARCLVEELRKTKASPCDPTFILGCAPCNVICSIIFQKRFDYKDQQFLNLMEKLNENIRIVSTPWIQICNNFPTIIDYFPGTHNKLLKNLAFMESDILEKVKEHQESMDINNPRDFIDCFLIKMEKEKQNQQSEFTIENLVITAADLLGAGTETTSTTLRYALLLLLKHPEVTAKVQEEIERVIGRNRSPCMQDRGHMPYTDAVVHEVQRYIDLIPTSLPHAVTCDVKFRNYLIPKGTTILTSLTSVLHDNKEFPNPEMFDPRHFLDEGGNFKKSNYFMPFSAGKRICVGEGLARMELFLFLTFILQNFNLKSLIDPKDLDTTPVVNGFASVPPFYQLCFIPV

With `O=C1C2CCCN2C(c2ccccc2)N1c1ccccn1` (stereo not given) the EC50 [1] was > 160 µM (inactive) and the EC50 [2] was > 38 µM (not active).

With `Cn1ccnc1SCC(=O)Nc1sccc1C#N` the AC50 (Cytochrome P450 2C19) was 7.08 µM (inconclusive) and the AC50 (Cytochrome P450 2D6) was 25.1 µM (inconclusive).

With `CN1CC[C@@]2(CCCN(C(=O)c3csnn3)C2)C1` the AC50 (Cytochrome P450 2D6) was 39.8 µM (inconclusive).

In the case of `CC1COc2ccccc2N1S(=O)(=O)c1ccccc1` (stereo not given), the EC50 [1] is reported as > 150 µM (inconclusive).

For `CC(C)CN(Cc1c(O)ccc2ccccc12)CC(C)C`, the IC50 [3] was 47.5 µM (active).

For `Cc1cccc(NC(=O)N(Cc2nc(O)c3ccccc3n2)C2CCCC2)c1`, the AC50 (Cytochrome P450 2D6) was 39.8 µM (inconclusive).

With `O=C(OCC(=O)N1CCc2ccccc21)c1ccc([N+](=O)[O-])cc1` the IC50 (cells) was 7.65 µM (active).

In the case of `COc1ccc(NCc2cc(O)nc3ccccc23)cc1`, the IC50 [3] is reported as 50.5 µM (active).

In the case of `C=C(C)C1Cc2c(C)nn(-c3nc(C)cc(C)n3)c2C1` (stereo not given), the EC50 [4] is reported as 25 µM (active), the EC50 (Streptokinase A) is reported as > 150 µM (not active) and the EC50 (Streptococcus) is reported as > 150 µM (not active). For the same molecule, the IC50 (cells) was 3.19 µM (active).

In the case of `Oc1c(C(Nc2cccc(C(F)(F)F)c2)c2cccnc2)ccc2cccnc12` (stereo not given), the EC50 [1] is reported as > 150 µM (inactive), the EC50 [4] is reported as 1.71 µM (active) and the EC50 (Streptokinase A) is reported as > 150 µM (not active). For the same molecule, the EC50 [2] was > 38 µM (not active) and the EC50 (Streptococcus) was 15.6 µM (active).

With `COCCOC(=O)c1c(C)oc2ccc(OC(=O)c3ccco3)cc12` the IC50 (cells) was > 50 µM (active).

For `CC(=O)Oc1ccc(C)cc1-n1nc2ccccc2n1`, the EC50 [5] was 0.445 µM (active) and the EC50 (H4) was 2.63 µM (active).

For `O=C(CNS(=O)(=O)c1ccc(Br)s1)N1CCC2(CC1)OCCO2`, the AC50 (Cytochrome P450 1A2) was 15.8 µM (inconclusive) and the AC50 (Cytochrome P450 3A4) was 25.1 µM (inconclusive).

In the case of `COc1ccccc1-c1ccc2ncnc(NCCN3CCOCC3)c2c1`, the AC50 (Cytochrome P450 2D6) is reported as 39.8 µM (inconclusive).

With `CN1CCc2c1nc1ccccc1c2NC(=O)CN1CCCC1` the IC50 [3] was 117 µM (active).

In the case of `Cc1sc(NC(=O)c2ccc(Br)s2)c(C(N)=O)c1C`, the EC50 [1] is reported as > 150 µM (inactive) and the EC50 [2] is reported as > 38 µM (not active).

With `COC(=O)c1cc2n(n1)CCN(Cc1ccccc1F)C2=O` the AC50 (Cytochrome P450 2C19) was 5.01 µM (inconclusive) and the AC50 (Cytochrome P450 1A2) was 15.8 µM (inconclusive).

With `O=C(Nc1nnc(-c2ccc(Cl)cc2)o1)C1=COCCO1` the IC50 (cells) was 4.83 µM (active).

With `O=c1c(-c2cccs2)nc2cnc(Nc3ccccc3)nc2n1C[C@H]1CCCO1` the AC50 (Cytochrome P450 1A2) was 2.51 µM (inconclusive) and the AC50 (Cytochrome P450 3A4) was 10 µM (inconclusive).

With `COc1cc2c(cc1C1C(C#N)=C(N)OC3=C1C(=O)CC(C)(C)C3)OCO2` (stereo not given) the EC50 [6] was > 300 µM (not active) and the EC50 [7] was > 300 µM (not active).
